For orientation: IC50 means the point on the concentration scale where inhibition reaches its midpoint. A low value points to greater potency.

Among the data in patent US20110178064A1, “SPIRO CONDENSED […] DERIVATIVES FOR USE AS ANTIBACTERIAL” (A[…]&D, priority 2007, published 2011) are IC50 values, retold here.

The assay deals with Escherichia coli DNA gyrase A/B tetramer (Escherichia coli, UniProt P0AES4+P0AES6). Description: DNA gyrase supercoiling activity fluorescence polarisation assay. Type of assay: biochemical. The method in brief:
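Gyrase supercoiling reactions quenched with 40 nM 5′-BODIPY-FL oligodeoxynucleotide triplex probe in pH 3.5 NaCl/sodium acetate buffer; fluorescence anisotropy read after 60 min (485/535 nm).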
(In fluorescence polarisation assays a small probe gives low polarisation when free and higher when bound to something large.)

Escherichia coli DNA gyrase A/B tetramer, sequence (P0AES4 whole entry, one chain of several): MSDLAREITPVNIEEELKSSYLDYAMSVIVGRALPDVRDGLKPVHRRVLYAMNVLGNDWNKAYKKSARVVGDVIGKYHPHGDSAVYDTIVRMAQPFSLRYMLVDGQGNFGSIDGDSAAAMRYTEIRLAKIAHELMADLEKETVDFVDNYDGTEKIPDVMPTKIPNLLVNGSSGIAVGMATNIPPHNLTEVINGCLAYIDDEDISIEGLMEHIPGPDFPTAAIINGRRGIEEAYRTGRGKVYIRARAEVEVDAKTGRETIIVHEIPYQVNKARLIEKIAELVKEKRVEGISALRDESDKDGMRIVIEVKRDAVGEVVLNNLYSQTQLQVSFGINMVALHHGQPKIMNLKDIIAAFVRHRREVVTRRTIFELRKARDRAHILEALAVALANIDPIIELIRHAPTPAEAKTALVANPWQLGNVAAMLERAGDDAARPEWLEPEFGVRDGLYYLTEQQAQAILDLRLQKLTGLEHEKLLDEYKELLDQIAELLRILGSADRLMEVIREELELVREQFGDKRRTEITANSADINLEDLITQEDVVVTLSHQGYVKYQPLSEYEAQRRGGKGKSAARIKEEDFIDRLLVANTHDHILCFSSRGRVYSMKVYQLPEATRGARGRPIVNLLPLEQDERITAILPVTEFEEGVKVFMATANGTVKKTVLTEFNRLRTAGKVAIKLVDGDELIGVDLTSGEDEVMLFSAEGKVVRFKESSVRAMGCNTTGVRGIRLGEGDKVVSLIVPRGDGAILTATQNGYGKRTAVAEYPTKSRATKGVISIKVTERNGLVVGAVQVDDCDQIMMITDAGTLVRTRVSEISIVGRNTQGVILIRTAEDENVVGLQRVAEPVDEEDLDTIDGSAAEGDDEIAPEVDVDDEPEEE

`Cc1nc(-c2cnc3c(c2)CC2(C(=O)NC(=O)NC2=O)[C@H]2[C@H](C)O[C@H](C)CN32)no1` (relative stereo) [Example 122, (6aS,7S,9R)-rel-7,9-dimethyl-3-(5-methyl-1,2,4-oxadiazol-3-yl)-6a,7,9,10-tetrahydro-2′H,5H-spiro[1,4-oxazino[4,3-a][1,8]naphthyridine-6,5′-pyrimidine]-2′,4′,6′(1′H,3′H)-trione]: the IC50 stood at 10 µM. This lies in the double-digit micromolar range.
For `C[C@@H]1CN2c3ncc(-c4noc(-c5ccccc5)n4)cc3CC3(C(=O)NC(=O)NC3=O)[C@H]2[C@H](C)O1` (relative stereo) [Example 123, (6aS,7S,9R)-rel-7,9-Dimethyl-3-(5-phenyl-1,2,4-oxadiazol-3-yl)-6a,7,9,10-tetrahydro-2′H,5H-spiro[1,4-oxazino[4,3-a][1,8]naphthyridine-6,5′-pyrimidine]-2′,4′,6′(1′H,3′H)-trione] the value was 9 µM.
In turn, `CC1CC(C)C2N(C1)c1cnc(Br)cc1CC21C(=O)NC(=O)NC1=O` (centres unmarked) [Example 2, 3-Bromo-7,9-Dimethyl-5,6a,7,8,9,10-hexahydro-1′H-spiro[pyrido[1,2-a][1,7]naphthyridine-6,5′-pyrimidine]-2′,4′,6′(3′H)-trione] yielded an IC50 of 9 µM.
Consider `O=C1NC(=O)C2(Cc3ccnc(Cl)c3N3CCCCC32)C(=O)N1` (centres unmarked) [Example 4, 1-chloro-5,6a,7,8,9,10-Hexahydro-1′H-spiro[pyrido[1,2-a][1,7]naphthyridine-6,5′-pyrimidine]-2′,4′,6′(3′H)-trione], for which the IC50 was greater than 100 µM.
On to `O=C1NC(=O)C2(Cc3c(F)cncc3N3CCCCC32)C(=O)N1` (centres unmarked) [Example 5, 4-Fluoro-5,6a,7,8,9,10-Hexahydro-1′H-spiro[pyrido[1,2-a][1,7]naphthyridine-6,5′-pyrimidine]-2′,4′,6′(3′H)-trione], for which the IC50 is greater than 100 µM.
Next, `CC1C[C@@H](C)[C@H]2N(C1)c1ncccc1CC21C(=O)NC(=O)NC1=O` (stereo partly drawn) [Example 7, (6aR,7R)-7,9-Dimethyl-5,6a,7,8,9,10-hexahydro-1′H-spiro[pyrido[1,2-a][1,8]naphthyridine-6,5′-pyrimidine]-2′,4′,6′(3′H)-trione]: 3 µM.
The compound `CC1C[C@@H](C)[C@H]2N(C1)c1ccc(Br)nc1CC21C(=O)NC(=O)NC1=O` (stereo partly drawn) [Example 8, (6aR,7R)-3-Bromo-7,9-dimethyl-5,6a,7,8,9,10-hexahydro-1′H-spiro[pyrido[1,2-a][1,5]naphthyridine-6,5′-pyrimidine]-2′,4′,6′(3′H)-trione] showed an IC50 greater than 83 µM.
Compound `O=C1NC(=O)C2(Cc3cc(Br)cnc3N3CCCCC32)C(=O)N1` (centres unmarked) [Example 10, 3-Bromo-5,6a,7,8,9,10-hexahydro-1′H-spiro[pyrido[1,2-a][1,8]naphthyridine-6,5′-pyrimidine]-2′,4′,6′(3′H)-trione] gave a half-inhibitory concentration (IC50) greater than 83 µM.
`CC1C[C@@H](C)[C@H]2N(C1)c1ncc(Br)cc1CC21C(=O)NC(=O)NC1=O` (stereo partly drawn) [Example 11, (6aR,7R)-3-Bromo-7,9-dimethyl-5,6a,7,8,9,10-hexahydro-1′H-spiro[pyrido[1,2-a][1,8]naphthyridine-6,5′-pyrimidine]-2′,4′,6′(3′H)-trione] returned an IC50 of 30 µM. This counts as double-digit micromolar.
For `C[C@H]1C[C@@H](C)[C@H]2N(C1)c1c(ccnc1Cl)CC21C(=O)NC(=O)NC1=O` [Example 13, (6aR,7R,9S)-1-chloro-7,9-dimethyl-5,6a,7,8,9,10-hexahydro-1′H-spiro[pyrido[1,2-a][1,7]naphthyridine-6,5′-pyrimidine]-2′,4′,6′(3′H)-trione] the value was 25 µM.
Next, `Cc1nnc(-c2cc3c(nc2F)N2C[C@@H](C)C[C@@H](C)[C@@H]2C2(C3)C(=O)NC(=O)NC2=O)s1` [Example 17, (6aR,7R,9S)-2-Fluoro-7,9-dimethyl-3-(5-methyl-1,3,4-thiadiazol-2-yl)-5,6a,7,8,9,10-hexahydro-1′H-spiro[pyrido[1,2-a][1,8]naphthyridine-6,5′-pyrimidine]-2′,4′,6′(3′H)-trione]: 6 µM.
